Laboratory results published in ChEMBL document CHEMBL1765032, “β-Branched acyclic nucleoside analogues as inhibitors of Plasmodium falciparum dUTPase” (Bioorg Med Chem, 2011).

Key:
[1] = Inhibition of Plasmodium falciparum dUTPase by spectrophotometric analysis
[2] = biological target: T1, Deoxyuridine 5'-triphosphate nucleotidohydrolase, mitochondrial (Homo sapiens, UniProt P33316); assay: Inhibition of human dUTPase by spectrophotometric analysis
T1 sequence (P33316 whole entry): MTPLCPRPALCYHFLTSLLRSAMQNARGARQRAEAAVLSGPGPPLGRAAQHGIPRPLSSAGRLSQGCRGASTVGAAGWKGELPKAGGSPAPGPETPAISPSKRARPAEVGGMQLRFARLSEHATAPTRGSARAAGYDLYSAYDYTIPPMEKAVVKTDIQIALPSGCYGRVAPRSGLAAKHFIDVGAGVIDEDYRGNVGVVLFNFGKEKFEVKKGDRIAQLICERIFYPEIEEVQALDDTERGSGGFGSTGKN

[3] = tested on: L6; assay: Cytotoxicity against rat L6 cells after 72 hrs by alamar blue assay; type: cell-based; settings: L6, 72 h
[4] = tested on: Plasmodium falciparum; assay: microbe, parasite or virus in culture; settings: K1
[5] = Selectivity index, ratio of EC50 for rat L6 cells to EC50 for chloroquine-resistant erythrocytic stage of Plasmodium falciparum K1; type: toxicity, cell-based; settings: read-out: Ratio EC50

Ki [2] [µM] | SMILES | Ki [1] [µM] | EC50 [3] [µM] | EC50 [4] [nM] | selectivity ratio [5]
> 100 | CN(C)C(=O)C(CCOC(c1ccccc1)(c1ccccc1)c1ccccc1)Cn1ccc(=O)[nH]c1=O (racemic) | 2.7 | – | – | –
> 100 | NC(=O)C(CCOC(c1ccccc1)(c1ccccc1)c1ccccc1)Cn1ccc(=O)[nH]c1=O (racemic) | 1.3 | – | – | –
> 100 | COCCNC(=O)C(CCOC(c1ccccc1)(c1ccccc1)c1ccccc1)Cn1ccc(=O)[nH]c1=O (racemic) | 1.4 | – | – | –
> 100 | CN1CCN(C(=O)C(CCOC(c2ccccc2)(c2ccccc2)c2ccccc2)Cn2ccc(=O)[nH]c2=O)CC1 (racemic) | 5.6 | – | – | –
> 100 | O=C(NCCO)C(CCOC(c1ccccc1)(c1ccccc1)c1ccccc1)Cn1ccc(=O)[nH]c1=O (racemic) | – | – | – | –
> 100 | O=C(C(CCOC(c1ccccc1)(c1ccccc1)c1ccccc1)Cn1ccc(=O)[nH]c1=O)N1CCOCC1 (racemic) | 2.1 | – | – | –
> 100 | O=C(O)CCNC(=O)C(CCOC(c1ccccc1)(c1ccccc1)c1ccccc1)Cn1ccc(=O)[nH]c1=O (racemic) | 0.2 | – | – | –
> 100 | CN(C)CCNC(=O)C(CCOC(c1ccccc1)(c1ccccc1)c1ccccc1)Cn1ccc(=O)[nH]c1=O (racemic) | 7.8 | – | – | –
> 100 | CCOC(=O)CCNC(=O)C(CCOC(c1ccccc1)(c1ccccc1)c1ccccc1)Cn1ccc(=O)[nH]c1=O (racemic) | 0.5 | – | – | –

Further lines, the molecule ahead of its results:

SMILES | Ki [2] [µM] | Ki [1] [µM] | EC50 [3] [µM] | EC50 [4] [nM] | selectivity ratio [5]
O=C(OCc1ccccc1)OCC(CCNC(c1ccccc1)(c1ccccc1)c1ccccc1)Cn1ccc(=O)[nH]c1=O (racemic) | > 100 | 6.5 | – | – | –
CC(C)(C)[Si](OCCC(Cn1ccc(=O)[nH]c1=O)C(N)=O)(c1ccccc1)c1ccccc1 (racemic) | > 100 | 5 | – | – | –
CC(C)(C)[Si](OCCNC(=O)C(CCOC(c1ccccc1)(c1ccccc1)c1ccccc1)Cn1ccc(=O)[nH]c1=O)(c1ccccc1)c1ccccc1 (racemic) | > 100 | > 10 | – | – | –
CC(C)(C)[Si](OCCC(Cn1ccc(=O)[nH]c1=O)C(=O)N1CCN(C(=O)OCc2ccccc2)CC1)(c1ccccc1)c1ccccc1 (racemic) | > 100 | 98 | – | – | –
O=c1ccn(CC(CO)CCOC(c2ccccc2)(c2ccccc2)c2ccccc2)c(=O)[nH]1 (racemic) | – | – | 33 | 1200 | –
CCN(CC)C(=O)C(CCO[Si](c1ccccc1)(c1ccccc1)C(C)(C)C)Cn1ccc(=O)[nH]c1=O (racemic) | > 100 | 20 | – | – | –
CCNC(=O)C(CCO[Si](c1ccccc1)(c1ccccc1)C(C)(C)C)Cn1ccc(=O)[nH]c1=O (racemic) | > 100 | 5.7 | – | – | –
CNC(=O)C(CCO[Si](c1ccccc1)(c1ccccc1)C(C)(C)C)Cn1ccc(=O)[nH]c1=O (racemic) | > 100 | 3.6 | – | – | –
O=c1ccn([C@H]2C[C@H](O)[C@@H](COC(c3ccccc3)(c3ccccc3)c3ccccc3)O2)c(=O)[nH]1 | – | – | 192 | 6000 | –
O=c1ccn([C@H]2C[C@H](O)[C@@H](CNC(c3ccccc3)(c3ccccc3)c3ccccc3)O2)c(=O)[nH]1 | – | – | 44 | 4500 | –
CC(C)(C)[Si](OCCC(Cn1ccc(=O)[nH]c1=O)C(=O)O)(c1ccccc1)c1ccccc1 (racemic) | > 100 | 1.6 | – | – | –
NC(=O)C(CCNC(c1ccccc1)(c1ccccc1)c1ccccc1)Cn1ccc(=O)[nH]c1=O (racemic) | 98 | 5.5 | 177 | 1100 | 161
COc1cc([C@@H]2c3cc4c(cc3[C@H](O)[C@H]3COC(=O)[C@H]23)OCO4)cc(OC)c1OC [PODOFILOX] | – | – | – | 12 | –
O=C(O)C(CCNC(c1ccccc1)(c1ccccc1)c1ccccc1)Cn1ccc(=O)[nH]c1=O (racemic) | 90 | 7.2 | 51 | 1300 | 39
O=c1ccn(CCCCOC(c2ccccc2)(c2ccccc2)c2ccccc2)c(=O)[nH]1 | – | – | 42 | 4900 | –
